From US20250387419A1, “PARP INHIBITOR-RESISTANT PATIENT TREATED WITH TH-302” (ASCENTAWITS PHARMACEUTICALS, LTD., priority 2021, published 2025)
Entries after “also recorded” stand apart in the source; their conditions may differ.

What was measured:
[1] = Safety (body weight) in BL3325 PDX model; format: in vivo, mouse
Experimental: Protocol: Nude female Balb/c mice were subcutaneously inoculated with HuPrime® bladder cancer BL3325 tumor tissue, establishing a human bladder cancer subcutaneous xenograft tumor model. The mice were divided into 6 groups, 6 in each group: 50 mg/kg of the test drug olaparib as a monotherapy (Group 02); 80 mg/kg TH-302 as a monotherapy (Group 03); 40 mg/kg TH-302 as a monotherapy (Group 04); 20 mg/kg TH-302 as a monotherapy (Group 05); 40 mg/kg TH-302 in combination therapy with 50 mg/kg olaparib (Group 06); and a glucose injection solution as a vehicle control (Group 01). The vehicle control group and the TH-302 treatment groups were all administered through tail vein, once weekly for a total of 3 weeks. Olaparib was intragastrically administered once daily for totally 30 days. Routes of administration, doses and regimens for the HuPrime® bladder cancer BL3325 animal model are specifically summarized in Table 20.
Tumor growth of the treatment and control groups on different days in the experiment were recorded and shown in Table 21, and corresponding tumor volume growth curves of the mice in respective groups are shown in FIG. 11. Efficacy evaluation was carried out based on relative tumor proliferation rates and relative tumor growth inhibition rates, and the results of efficacy analysis are summarized in Table 22. Body weight changes of the treatment and control groups after administration were recorded to investigate safety of the groups in the HuPrime® bladder cancer BL3325 subcutaneous model. Body weight change rates of the mice on Day 35 are shown in Table 23, and curves showing body weights of the treatment groups over time are plotted in FIG. 12.

[2] = Safety (body weight) in Capan-1 CDX model (3.2); format: in vivo
Experimental: Protocol: Nude BALB/c mice were subcutaneously inoculated with human pancreatic cancer Capan-1 cells, establishing a human pancreatic cancer subcutaneous xenograft model. The mice were divided into 7 groups, 6 in each group: 100 mg/kg of the test drug olaparib as a monotherapy (Group 2); 50 mg/kg of TH-302 as a monotherapy (Group 3, QD); 100 mg/kg of TH-302 as a monotherapy (Group 4); 50 mg/kg of TH-302 as a monotherapy (Group 5, QW); 25 mg/kg of TH-302 as a monotherapy (Group 6); 25 mg/kg TH-302 in combination therapy with 100 mg/kg olaparib (Group 7); and 10% anhydrous ethanol+10% polyoxyethylene (35) castor oil+80% glucose injection solution D5W (pH 7.4) as a vehicle control (Group 1). The vehicle control group and the TH-302 test groups were all administered through tail vein injection. The 50 mg/kg TH-302 monotherapy group (Group 3, QD) was administered once daily for 3 consecutive days. After rest for 4 days and two weeks, the mice were again administered daily for another 3 consecutive days. TH-302 in all the 100 mg/kg (Group 4, QW), 50 mg/kg (Group 5, QW) and 25 mg/kg (Group 6, QW) TH-302 monotherapy groups and 25 mg/kg TH-302+100 mg/kg olaparib combination therapy group (Group 7) was administered once weekly for a total of three weeks. The test drug olaparib in all the groups was orally and intragastrically administered once daily for totally 30 days. Routes of administration, doses and regimens for the human pancreatic cancer Capan-1 animal model are specifically summarized in Table 12.
Tumor growth of the treatment and control groups on different days in the experiment were recorded and shown in Table 13, and corresponding tumor volume growth curves of the mice in respective groups are shown in FIG. 7. Efficacy evaluation was conducted based on relative tumor proliferation rates and relative tumor growth inhibition rates, and the results of efficacy analysis are summarized in Table 14. Body weight changes of the treatment and control groups after administration were recorded to investigate safety of the groups in the human pancreatic cancer Capan-1 subcutaneous model. Body weight change rates of the mice on Day 43 are shown in Table 15, and curves showing body weights of the treatment groups over time are plotted in FIG. 8.

[3] = Safety (body weight) in Capan-1 CDX model (3.1); format: in vivo; design: Body weight: unit: g; conditions: for Body weight / Body weight change percentage: olaparib 100 mg/kg p.o. QD×30, TH-302 75 mg/kg i.v. QW×3
Experimental: Each nude female BALB/c mouse was subcutaneously inoculated at a lower portion of the right back with 5×10^5 Capan-1 cells resuspended in a 1:1 mixture of PBS and matrigel (0.1 ml per mouse). A total of 64 female mice were inoculated. The inoculation was conducted on Jun. […] The test drug olaparib group was orally and intragastrically administered, once daily for a total of 30 days. Efficacy was evaluated based on relative tumor growth inhibition (TGI) rates (%), and safety was evaluated based on body weight changes and deaths of the animals.

[4] = Group 3: 80 mg/kg i.v. QW×3, Day 35
[5] = Group 4: 40 mg/kg i.v. QW×3, Day 35
[6] = Group 5: 20 mg/kg i.v. QW×3, Day 35
[7] = Group 3: 50 mg/kg i.v. QD, Day 43
[8] = Group 4: 100 mg/kg i.v. QW×3, Day 43
[9] = Group 5: 50 mg/kg i.v. QW×3, Day 43
[10] = Group 6: 25 mg/kg i.v. QW×3, Day 43

In the case of Cn1c(COP(=O)(NCCBr)NCCBr)cnc1[N+](=O)[O-] [TH-302, evofosfamide], the “Average Body Weight g (x ± S)” value ([1]; Group 3: 80 mg/kg i.v. QW×3, Day 0) is reported as 21.7 ± 0.4 g, the “Average Body Weight g (x ± S)” value [1, 4] is reported as 23.8 ± 0.6 g and the “Body Weight Change Rate (%)” value [1, 4] is reported as 9.46% ± 0.99%. For the same compound, the “Average Body Weight g (x ± S)” value ([1]; Group 4: 40 mg/kg i.v. QW×3, Day 0) was 21.5 ± 0.3 g, the “Average Body Weight g (x ± S)” value [1, 5] was 23.2 ± 0.2 g and the “Body Weight Change Rate (%)” value [1, 5] was 7.88% ± 1.16%. The “Average Body Weight g (x ± S)” value ([1]; Group 5: 20 mg/kg i.v. QW×3, Day 0) was 21.6 ± 0.3 g, the “Average Body Weight g (x ± S)” value [1, 6] was 23.0 ± 0.5 g and the “Body Weight Change Rate (%)” value [1, 6] was 6.30% ± 1.07%. The “Average Body Weight g (x ± S)” value ([2]; Group 3: 50 mg/kg i.v. QD, Day 6) was 22.1 ± 0.4 g, the “Average Body Weight g (x ± S)” value [2, 7] was 24.5 ± 0.3 g and the “Body Weight Change Rate (%)” value [2, 7] was 10.74% ± 1.25%. The “Average Body Weight g (x ± S)” value ([2]; Group 4: 100 mg/kg i.v. QW×3, Day 6) was 21.8 ± 0.5 g, the “Average Body Weight g (x ± S)” value [2, 8] was 24.2 ± 0.7 g and the “Body Weight Change Rate (%)” value [2, 8] was 11.04% ± 0.91. The “Average Body Weight g (x ± S)” value ([2]; Group 5: 50 mg/kg i.v. QW×3, Day 6) was 21.9 ± 0.4 g, the “Average Body Weight g (x ± S)” value [2, 9] was 25.1 ± 0.4 g and the “Body Weight Change Rate (%)” value [2, 9] was 14.81% ± 0.62. For the same compound, the “Average Body Weight g (x ± S)” value ([2]; Group 6: 25 mg/kg i.v. QW×3, Day 6) was 22.0 ± 0.5 g, the “Average Body Weight g (x ± S)” value [2, 10] was 26.4 ± 0.7 g and the “Body Weight Change Rate (%)” value [2, 10] was 20.46% ± 3.51. The “Body weight loss / tolerance” value ([2]; olaparib 100 mg/kg, TH-302 25, 50 (QD), 50 (QW), 100 mg/kg, combination 100 + 25 mg/kg) was “No significant mouse body weight losses”, the Body weight ([3]; Day 5) was 22.7 and the “Body weight change percentage” value ([3]; Day 5) was 0.00%. For the same compound, the Body weight ([3]; Day 7) was 22.0, the “Body weight change percentage” value ([3]; Day 7) was −3.01% and the Body weight ([3]; Day 9) was 22.7. The “Body weight change percentage” value ([3]; Day 9) was 0.18%, the Body weight ([3]; Day 12) was 23.4 and the “Body weight change percentage” value ([3]; Day 12) was 2.90%. The Body weight ([3]; Day 14) was 23.6, the “Body weight change percentage” value ([3]; Day 14) was 3.78% and the Body weight ([3]; Day 16) was 23.6. For the same compound, the “Body weight change percentage” value ([3]; Day 16) was 4.07%, the Body weight ([3]; Day 19) was 23.8 and the “Body weight change percentage” value ([3]; Day 19) was 5.01%. The Body weight ([3]; Day 21) was 23.7, the “Body weight change percentage” value ([3]; Day 21) was 4.49% and the Body weight ([3]; Day 23) was 23.8. For the same compound, the “Body weight change percentage” value ([3]; Day 23) was 4.78%, the Body weight ([3]; Day 26) was 23.3 and the “Body weight change percentage” value ([3]; Day 26) was 2.63%. For the same compound, the Body weight ([3]; Day 28) was 24.1, the “Body weight change percentage” value ([3]; Day 28) was 6.22% and the Body weight ([3]; Day 30) was 24.3. The “Body weight change percentage” value ([3]; Day 30) was 6.96%, the Body weight ([3]; Day 33) was 24.7 and the “Body weight change percentage” value ([3]; Day 33) was 8.63%. The Body weight ([3]; Day 35) was 24.7, the “Body weight change percentage” value ([3]; Day 35) was 8.65% and the “Body weight loss / tolerance” value ([3]; olaparib 100 mg/kg, TH-302 75 mg/kg, combination 100 + 75 mg/kg) was “No significant body weight losses; also recorded: good tolerance”.
